Assay results as given in PubChem BioAssay (NCI).
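Test compounds were applied to cells in 96-well plates for 48 hours at 5 doses. The concentration for 50% growth inhibition is given as GI50. Definition used: TGI = concentration required for complete inhibition of growth.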

Key:
Assay in all cases: NCI tumour cell line growth inhibition, 48 h
U251 CNS = test system: U251 CNS
RPMI-8226 leukemia = test system: RPMI-8226 leukemia
NCI-H226 lung = test system: NCI-H226 lung
M14 melanoma = test system: M14 melanoma
SK-OV-3 ovarian = test system: SK-OV-3 ovarian
SK-MEL-28 melanoma = test system: SK-MEL-28 melanoma
SNB-75 CNS = test system: SNB-75 CNS
OVCAR-5 ovarian = test system: OVCAR-5 ovarian
HOP-92 NSCLC = test system: HOP-92 NSCLC
MDA-MB-435 = test system: MDA-MB-435

Row | SMILES | GI50 (U251 CNS) | TGI (U251 CNS) | GI50 (RPMI-8226 leukemia) | TGI (RPMI-8226 leukemia) | GI50 (NCI-H226 lung) | TGI (NCI-H226 lung) | GI50 (M14 melanoma) | TGI (M14 melanoma) | GI50 (SK-OV-3 ovarian) | TGI (SK-OV-3 ovarian) | GI50 (SK-MEL-28 melanoma) | TGI (SK-MEL-28 melanoma) | GI50 (SNB-75 CNS) | TGI (SNB-75 CNS) | GI50 (OVCAR-5 ovarian) | TGI (OVCAR-5 ovarian) | GI50 (HOP-92 NSCLC) | TGI (HOP-92 NSCLC) | GI50 (MDA-MB-435) | TGI (MDA-MB-435)
1 | Nc1nc2c(nnn2C2OC(CO)C(O)C2O)c(=O)[nH]1 (stereo not given) | 2960 nM | > 100 µM | 2760 nM | > 100000 nM | 6.31 µM | > 100 µM | 2070 nM | > 100 µM | 0.33 µM | > 23.9 µM | 16.9 µM | > 100 µM | 5.86 µM | > 100 µM | 13.3 µM | > 100 µM | 505 nM | 68.4 µM | 2110 nM | > 100 µM
2 | CCCC[n+]1c(/C=C\c2c(OC)cc(OC)cc2OC)ccc2ccccc21 | 353 nM | 3.66 µM | 279 nM | 2730 nM | 1.92 µM | 12.6 µM | 1180 nM | 2.81 µM | 1.98 µM | 8.83 µM | 0.601 µM | 2.75 µM | 1.57 µM | 8.21 µM | 2.26 µM | 10.3 µM | 502 nM | 4.8 µM | 393 nM | 1.87 µM
3 | CC1SC2(CCC(c3ccccc3)CC2)N(NC(=O)c2[nH]c3ccc(F)cc3c2-c2ccccc2)C1=O (stereo not given) | 4090 nM | 24 µM | 804 nM | 2910 nM | 11 µM | 29.8 µM | 5670 nM | 21.9 µM | 54.3 µM | > 100 µM | 5.34 µM | 18.1 µM | 19.4 µM | 42.2 µM | 18.5 µM | 43.8 µM | 1330 nM | 3.65 µM | 6110 nM | 39.3 µM
4 | O=C1C(Nc2ccc(Br)cc2)=C(I)C(=O)c2ncccc21 | 1320 nM | 3.98 µM | 836 nM | 2120 nM | 0.988 µM | 2.13 µM | 815 nM | 1.93 µM | 5.61 µM | 11.6 µM | 1.82 µM | 6.1 µM | 1.24 µM | 7 µM | 1.58 µM | 5.71 µM | 815 nM | 1.61 µM | 911 nM | 1.72 µM
5 | O=S(=O)(c1ccc(Br)cc1)N1CCN(S(=O)(=O)c2ccc(Br)cc2)CC1 | – | > 100 µM | – | > 100000 nM | – | > 100 µM | – | > 100 µM | – | > 100 µM | – | > 100 µM | – | > 100 µM | – | > 100 µM | – | > 100 µM | – | > 100 µM
6 | O=C1CCCCC=C1C[N+](=O)[O-] | 33900 nM | > 100 µM | 25500 nM | 58500 nM | 26 µM | 73.3 µM | 19300 nM | 45 µM | > 100 µM | > 100 µM | 28.5 µM | 92 µM | 25.5 µM | 68.8 µM | 21.9 µM | 41.6 µM | 29000 nM | 51.9 µM | 20600 nM | 41.2 µM
